Measured values: PubChem BioAssay AID1963449 (Molecular Pharmacology Branch, DTP, NCI, 2024)

Tested on: 596521-263-R-J1-PDC complex spheroid growth
Test: Anticancer human tumor 596521-263-R-J1-PDC patient-derived soft tissue sarcoma cell line growth inhibition [Asc]
Conditions: for IC50: curve of first compound; for viability, T/C: stronger effect = lower value
Experimental: Multicellular complex tumor spheroid response to apoptosis pathway targeting inhibitors Alrizomadlin, Pelcitoclax, and Dasminapant in combination with a variety of drugs and investigational agents in selected tumor cell lines
The MDM2 inhibitor alrizomadlin, the Bcl-2/Bcl-xL inhibitor pelcitoclax, and the IAPs inhibitor dasminapant were evaluated both individually and in combination with standard of care and investigational anticancer small molecules within a complex spheroid model of solid tumors. . Complex spheroids include a stromal component modeled by human endothelial cells (HUVEC) and fibroblasts modeled by human mesenchymal stem cells (MSCs). The concentration ranges selected for each drug and investigational agent were based upon clinically achievable concentrations if the clinical Cmax of the agent was known.
Compounds. The drugs and investigational agents: alrizomadlin (APG-115; NSC831270), pelcitoclax (APG-1252; NSC835773), dasminapant (APG-1387;NSC834197), TAK-243 (NSC785004), copanlisib (NSC809693), olaparib (NSC753686), talazoparib (NSC767125), cobimetinib (NSC 768068), eltanexor (KPT-8602, NSC 794443), abemaciclib (NSC 768073), sotorasib (NSC818433), adagrasib (NSC 831453), MRTX-1133 (NSC 836407), Iadademestat (ORY1001, NSC 806812), and RMC-4630 (NSC839698), were obtained from the NCI Developmental Therapeutics Program Chemical Repository. The FDA-approved anticancer drug set is available from the Developmental Therapeutics Program at https://dtp.cancer.gov/organization/dscb/obtaining/available plates.htm. […] The stock solutions were prepared in dimethyl sulfoxide (DMSO, Sigma-Aldrich, St. Louis, MO, cat. D2650) at 800-fold the tested concentration and stored at -70 degrees C prior to their use. All drugs and investigational agents were tested over a range starting from a high concentration at or near the clinical Cmax and decreasing in half-log increments. If the clinical Cmax for an agent had not been determined, the highest concentration tested was 10 microM.
The patient-derived cancer (PDC) cell lines include five colon adenocarcinomas: 186277-243-T-J2-PDC, 616215-338-R-J1-PDC, 439559-082-T-J2-PDC, 463943-066-T-J2-PDC, and 519858-162-T-J1-PDC; three pancreatic carcinomas: 323965-272-R-J2-PDC, 521955-158-R6-J3-PDC, and 521955-158-R2-J5-PDC; two uterine sarcomas: 327498-152-R-J2-PDC and 993429-296-R-J1-PDC; two rhabdomyosarcomas: 755483-174-R-J1-PDC and 772245-204-R-J1-PDC; two soft tissue sarcomas: 126254-015-R-J1-PDC and 494315-158-R-J1-PDC; two malignant fibrous histiocytomas: 317291-083-R-J1-PDC and 596521-263-R-J1-PDC; two breast carcinomas: 171881-019-R-J1-PDC and 885512-296-R-J2-PDC; and one ovarian carcinoma: 6556581-035-R-J-PDC were obtained from the NCI PDMR, (https://pdmr.cancer.gov). The established cell lines HSSY-2 synovial sarcoma (RRID:CVCL 8719), SYO-1 synovial sarcoma (RRID:CVCL_7146), MPNST malignant peripheral neural sheath tumor were obtained from the Sloan Kettering Institute. The following established cell lines were purchased from the American Type Culture Collection (ATCC, Manassas, VA), Sor the received from the NCI repository:, PANC-1 pancreatic carcinoma (CRL-1469, RRID:CVCL_0480), OVCAR-5 ovarian carcinoma (RRID:CVCL_1628), OVCAR-8 ovarian carcinoma (RRID:CVCL_1629), , MCF-7 breast carcinoma (CRL-12584, RRID:CVCL_0031), MDA-MB-231 breast carcinoma (CRL-12532, RRID:CVCL_0062), NCI-H1876 small cell lung carcinoma (CRL-5902, RRID:CVCL_1503), NCI-H510A small cell lung carcinoma (HTB-184, RRID:CVCL_1565), NCI-H1417 (CRL-5869, RRID:CVCL_1469), and NCI-H196 small cell lung carcinoma (CRL-5823, RRID:CVCL_1509). Dr. Peter Houghton (Greehey Children's Cancer Research Institute, University of Texas Health Science Center, San Antonio, TX) provided Rh-18 rhabdomyosarcoma (RRID:CVCL_1659). Pooled donor human umbilical vein endothelial cells (HUVEC, Lonza, cat. CC-2519) and human mesenchymal stem cells (hMSC, Lonza, cat. PT-2501) were purchased from Lonza (Walkersville, MD).
Cell Culture. […]

[1] = second compound 0.0316 µM, first compound 0.00316 µM
[2] = second compound 0.0316 µM, first compound 0.01 µM
[3] = second compound 0.0316 µM, first compound 0.0316 µM
[4] = second compound 0.0316 µM, first compound 0.1 µM
[5] = second compound 0.1 µM, first compound 0.00316 µM
[6] = second compound 0.1 µM, first compound 0.01 µM
[7] = second compound 0.1 µM, first compound 0.0316 µM
[8] = second compound 0.1 µM, first compound 0.1 µM
[9] = second compound 0.316 µM, first compound 0.00316 µM
[10] = second compound 0.316 µM, first compound 0.01 µM
[11] = second compound 0.316 µM, first compound 0.0316 µM
[12] = second compound 0.316 µM, first compound 0.1 µM
[13] = second compound 1 µM, first compound 0.00316 µM
[14] = second compound 1 µM, first compound 0.01 µM
[15] = second compound 1 µM, first compound 0.0316 µM
[16] = second compound 1 µM, first compound 0.1 µM
[17] = second compound 3.16 µM, first compound 0.00316 µM
[18] = second compound 3.16 µM, first compound 0.01 µM
[19] = second compound 3.16 µM, first compound 0.0316 µM
[20] = second compound 3.16 µM, first compound 0.1 µM
[21] = second compound 10 µM, first compound 0.00316 µM
[22] = second compound 10 µM, first compound 0.01 µM
[23] = second compound 10 µM, first compound 0.0316 µM
[24] = second compound 10 µM, first compound 0.1 µM
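Also: spheroids exposed to compounds for 7 days.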

Cn1ncnc1[C@H]1c2n[nH]c(=O)c3cc(F)cc(c23)N[C@@H]1c1ccc(F)cc1 + Cc1c(S(C)(=O)=O)c(-c2cc(F)cc(N3CCN(c4ccc(NS(=O)(=O)c5ccc(NC(CCN6CCC(C(=O)OCCCP(=O)(O)O)CC6)CSc6ccccc6)c(S(=O)(=O)C(F)(F)F)c5)cc4)CC3)c2)c(-c2ccc(Cl)cc2)n1C(C)C
IC50 (second compound 0.0316 µM): > 100 nM | IC50 (second compound 0.1 µM): > 100 nM | IC50 (second compound 0.316 µM): > 100 nM | IC50 (second compound 1 µM): > 100 nM | IC50 (second compound 3.16 µM): 38.5 nM | IC50 (second compound 10 µM): 1.07 nM | viability, T/C (second compound 0.0316 µM, first compound 0.000316 µM): 97.5% | viability, T/C (second compound 0.0316 µM, first compound 0.001 µM): 112% | viability, T/C [1]: 81.9% | viability, T/C [2]: 94.1% | viability, T/C [3]: 87.4% | viability, T/C [4]: 79.3% | viability, T/C (second compound 0.1 µM, first compound 0.000316 µM): 90.6% | viability, T/C (second compound 0.1 µM, first compound 0.001 µM): 97.8% | viability, T/C [5]: 94.3% | viability, T/C [6]: 81.6% | viability, T/C [7]: 78.5% | viability, T/C [8]: 74.5% | viability, T/C (second compound 0.316 µM, first compound 0.000316 µM): 88.5% | viability, T/C (second compound 0.316 µM, first compound 0.001 µM): 86.6% | viability, T/C [9]: 77.7% | viability, T/C [10]: 82.8% | viability, T/C [11]: 75.5% | viability, T/C [12]: 73.4% | viability, T/C (second compound 1 µM, first compound 0.000316 µM): 90.9% | viability, T/C (second compound 1 µM, first compound 0.001 µM): 85.3% | viability, T/C [13]: 85.2% | viability, T/C [14]: 65% | viability, T/C [15]: 68.4% | viability, T/C [16]: 61.1% | viability, T/C (second compound 3.16 µM, first compound 0.000316 µM): 58.7% | viability, T/C (second compound 3.16 µM, first compound 0.001 µM): 69.5% | viability, T/C [17]: 57.3% | viability, T/C [18]: 57.4% | viability, T/C [19]: 52.6% | viability, T/C [20]: 40.2% | viability, T/C (second compound 10 µM, first compound 0.000316 µM): 54.1% | viability, T/C (second compound 10 µM, first compound 0.001 µM): 50.3% | viability, T/C [21]: 43.6% | viability, T/C [22]: 42% | viability, T/C [23]: 42% | viability, T/C [24]: 28.9%

O=C(c1ccc(F)c(F)c1Nc1ccc(I)cc1F)N1CC(O)([C@@H]2CCCCN2)C1 + Cc1c(S(C)(=O)=O)c(-c2cc(F)cc(N3CCN(c4ccc(NS(=O)(=O)c5ccc(NC(CCN6CCC(C(=O)OCCCP(=O)(O)O)CC6)CSc6ccccc6)c(S(=O)(=O)C(F)(F)F)c5)cc4)CC3)c2)c(-c2ccc(Cl)cc2)n1C(C)C
IC50 (second compound 0.0316 µM): 349 nM | IC50 (second compound 0.1 µM): 236 nM | IC50 (second compound 0.316 µM): 209 nM | IC50 (second compound 1 µM): 172 nM | IC50 (second compound 3.16 µM): 124 nM | IC50 (second compound 10 µM): 55.5 nM | viability, T/C [1]: 96% | viability, T/C [2]: 93% | viability, T/C [3]: 93.3% | viability, T/C [4]: 74.9% | viability, T/C (second compound 0.0316 µM, first compound 0.316 µM): 52.7% | viability, T/C (second compound 0.0316 µM, first compound 1 µM): 30.2% | viability, T/C [5]: 101% | viability, T/C [6]: 102% | viability, T/C [7]: 103% | viability, T/C [8]: 70.2% | viability, T/C (second compound 0.1 µM, first compound 0.316 µM): 45.5% | viability, T/C (second compound 0.1 µM, first compound 1 µM): 29.9% | viability, T/C [9]: 87.1% | viability, T/C [10]: 84% | viability, T/C [11]: 87.1% | viability, T/C [12]: 71.1% | viability, T/C (second compound 0.316 µM, first compound 0.316 µM): 38.1% | viability, T/C (second compound 0.316 µM, first compound 1 µM): 22.9% | viability, T/C [13]: 83.3% | viability, T/C [14]: 70.9% | viability, T/C [15]: 84.8% | viability, T/C [16]: 66.3% | viability, T/C (second compound 1 µM, first compound 0.316 µM): 31.4% | viability, T/C (second compound 1 µM, first compound 1 µM): 21.8% | viability, T/C [17]: 62.8% | viability, T/C [18]: 71.4% | viability, T/C [19]: 62.2% | viability, T/C [20]: 55.8% | viability, T/C (second compound 3.16 µM, first compound 0.316 µM): 26.7% | viability, T/C (second compound 3.16 µM, first compound 1 µM): 16.8% | viability, T/C [21]: 54.1% | viability, T/C [22]: 57.4% | viability, T/C [23]: 55% | viability, T/C [24]: 45% | viability, T/C (second compound 10 µM, first compound 0.316 µM): 26.8% | viability, T/C (second compound 10 µM, first compound 1 µM): 18.6%
